Experimental data as given in paper PMC6863825, “Modulating multi-functional ERK complexes by covalent targeting of a recruitment site in vivo” (Nature Communications, 2019).

Biological target: T1, ERK2 (Rattus norvegicus, UniProt P63086)
T1 construct: gene Mapk1; full-length ERK2
Experiment: fluorescence anisotropy displacement of FITC D-site peptide; also protein NMR, intact MS, kinact/Ki
Type: binding

T1 sequence (P63086 2-358): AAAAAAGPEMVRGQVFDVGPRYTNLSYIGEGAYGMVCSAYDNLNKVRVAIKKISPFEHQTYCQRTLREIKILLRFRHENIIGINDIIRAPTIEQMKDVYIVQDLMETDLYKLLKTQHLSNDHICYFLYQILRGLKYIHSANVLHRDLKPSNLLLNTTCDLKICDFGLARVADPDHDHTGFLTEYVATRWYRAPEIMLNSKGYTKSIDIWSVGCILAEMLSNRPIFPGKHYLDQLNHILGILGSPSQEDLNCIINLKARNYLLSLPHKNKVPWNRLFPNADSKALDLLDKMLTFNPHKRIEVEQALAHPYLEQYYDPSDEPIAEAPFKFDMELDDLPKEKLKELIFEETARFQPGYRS

Ki: 800 ± 200 nM
Compound: O=[N+]([O-])c1cnc(Sc2nnc(O)n2-c2ccc3c(c2)OCCO3)s1 [compound 1, BI-78D3]
